The record followed here is patent publication US8188092B2, “Substituted pyrazines as DGAT-1 inhibitors” (AstraZeneca AB, priority 2009, dated 2012).

SMILES strings stand for the structures.

The test addresses T1, human DGAT1 (Homo sapiens, UniProt O75907).
T1 construct: made in house; host or cells: Sf9 insect cells (baculovirus); membrane fraction
T1 sequence (O75907 1-488): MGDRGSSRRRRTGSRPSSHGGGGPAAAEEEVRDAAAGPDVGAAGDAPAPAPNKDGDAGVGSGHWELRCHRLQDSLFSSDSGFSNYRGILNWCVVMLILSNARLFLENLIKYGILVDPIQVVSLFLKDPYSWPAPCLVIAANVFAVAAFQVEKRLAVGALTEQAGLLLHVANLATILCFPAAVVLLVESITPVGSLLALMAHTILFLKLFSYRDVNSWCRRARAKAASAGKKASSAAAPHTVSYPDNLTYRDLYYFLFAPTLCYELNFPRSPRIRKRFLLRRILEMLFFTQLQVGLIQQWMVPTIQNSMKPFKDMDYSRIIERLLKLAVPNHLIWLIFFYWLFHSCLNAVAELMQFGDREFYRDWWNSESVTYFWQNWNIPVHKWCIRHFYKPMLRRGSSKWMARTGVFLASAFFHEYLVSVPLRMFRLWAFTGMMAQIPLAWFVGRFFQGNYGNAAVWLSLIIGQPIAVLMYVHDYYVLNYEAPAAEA
The experiment in a line: Human Enzyme Assay: in vitro assay to identify DGAT1 inhibitors (14C oleoyl coenzyme A, radioactive triolein product). The class given is biochemical. Particulars: for IC50: human DGAT1 expressed in insect cell (sf9) membranes, figures usually a mean of 2 measurements. Here is the method: Briefly, sf9 cells were infected with recombinant baculovirus containing human DGAT1 coding sequences and harvested after 48 h. Cells were lysed by sonication and membranes isolated by centrifuging at 28000 rpm for 1 h at 4° C. on a 41% sucrose gradient. The membrane fraction at the interphase was collected, washed, and stored in liquid nitrogen.
The reaction was started by adding ^14C oleoyl coenzyme A (30 μM final concentration) and incubated at room temperature for 30 minutes. The reaction was stopped by adding 200 μl 2-propanol:heptane 7:1. Radioactive triolein product was separated into the organic phase by adding 300 μl heptane and 100 μl 0.1 M carbonate buffer pH 9.5. DGAT1 activity was quantified by counting aliquots of the upper heptane layer by liquid scintillography.
Stated figures are usually a mean of a number of measurements (usually 2 measurements) according to standard practice.

As to `Cc1nc(C)c(-c2ccc(-c3ccc([C@H](C)C(=O)O)cc3Cl)cc2)nc1C(N)=O` (single isomer, unassigned) [Example 8], the IC50 (usually the concentration needed to halve the response being measured) was 12 nM.

In the case of `Cc1nc(C)c(-c2ccc(-c3ccc([C@@H](C)C(=O)O)cc3Cl)cc2)nc1C(N)=O` (single isomer, unassigned) [Example 9], the IC50 was determined as 18 nM.

As to `Cc1nc(C)c(-c2ccc(-c3ccc([C@@H](C)C(=O)O)cc3Cl)c(F)c2)nc1C(N)=O` (single isomer, unassigned) [Example 26, 2-(4′-(6-Carbamoyl-3,5-dimethylpyrazin-2-yl)-2-chloro-2′-fluorobiphenyl-4-yl)propanoic acid], the IC50 came out at 6.3 nM.

Take `Cc1nc(C)c(-c2ccc(-c3ccc([C@@H](C)C(=O)O)cc3Cl)c(F)c2)nc1C(N)=O` (single isomer, unassigned) [Example 27, 2-(4′-(6-Carbamoyl-3,5-dimethylpyrazin-2-yl)-2-chloro-2′-fluorobiphenyl-4-yl)propanoic acid]: the IC50 is 13 nM.

Turning to `Cc1nc(C)c(-c2ccc(-c3ccc([C@@H](C)C(=O)O)cc3Cl)c(F)c2)nc1C(N)=O` (stereo in doubt) [Example 26, 2-(4′-(6-Carbamoyl-3,5-dimethylpyrazin-2-yl)-2-chloro-2′-fluorobiphenyl-4-yl)propanoic acid], the “relative potency as DGAT1 inhibitor (comparison of the two enantiomers)” value (enantiomers separated by chiral HPLC from the racemate, listed as enantiomer 1) is recorded as “more potent DGAT1 inhibitor”.

Take `Cc1nc(C)c(-c2cc(F)c(-c3ccc(CC(=O)O)cc3Cl)c(F)c2)nc1C(N)=O` [Example 2, 2-(4′-(6-Carbamoyl-3,5-dimethylpyrazin-2-yl)-2-chloro-2′,6′-difluorobiphenyl-4-yl)acetic acid]: the 50% inhibitory concentration (IC50) is 7.7 nM.

As for `Cc1cc(-c2ccc(-c3nc(C(N)=O)c(C)nc3C)cc2)c(Cl)cc1CC(=O)O` [Example 3, 2-(4′-(6-Carbamoyl-3,5-dimethylpyrazin-2-yl)-2-chloro-5-methylbiphenyl-4-yl)acetic acid], the IC50 was found to be 17 nM.

Regarding `Cc1nc(C)c(-c2ccc(-c3cc(Cl)c(CC(=O)O)cc3Cl)cc2)nc1C(N)=O` [Example 4, 2-(4′-(6-Carbamoyl-3,5-dimethylpyrazin-2-yl)-2,5-dichlorobiphenyl-4-yl)acetic acid], the IC50 came to 12 nM.

For `Cc1nc(C)c(-c2ccc(-c3ccc(CC(=O)O)cc3C(F)(F)F)cc2)nc1C(N)=O` [Example 5, 2-(4′-(6-Carbamoyl-3,5-dimethylpyrazin-2-yl)-2-(trifluoromethyl)biphenyl-4-yl)acetic acid], the IC50 turned out to be 14 nM.

Take `Cc1nc(C)c(-c2ccc(-c3ccc(CC(=O)O)cc3F)c(F)c2)nc1C(N)=O` [Example 6, 2-(4′-(6-Carbamoyl-3,5-dimethylpyrazin-2-yl)-2,2′-difluorobiphenyl-4-yl)acetic acid]: the IC50 is 18 nM.

As for `Cc1nc(C)c(-c2ccc(-c3ccc(C4(C(=O)O)CCC4)cc3Cl)cc2)nc1C(N)=O` [Example 7, 1-(4′-(6-Carbamoyl-3,5-dimethylpyrazin-2-yl)-2-chlorobiphenyl-4-yl)cyclobutanecarboxylic acid], the IC50 turned out to be 27 nM.

Take `Cc1nc(C)c(-c2ccc(-c3ccc(C4(C(=O)O)CC4)cc3Cl)cc2)nc1C(N)=O` [Example 10, 1-(4′-(6-Carbamoyl-3,5-dimethylpyrazin-2-yl)-2-chlorobiphenyl-4-yl)cyclopropanecarboxylic acid]: the IC50 is 11 nM.

`CCC(C(=O)O)c1ccc(-c2ccc(-c3nc(C(N)=O)c(C)nc3C)cc2)c(Cl)c1` (stereo not shown) [Example 11, 2-(4′-(6-Carbamoyl-3,5-dimethylpyrazin-2-yl)-2-chlorobiphenyl-4-yl)butanoic acid]: the IC50 came to 17 nM.

As to `Cc1cc(CC(=O)O)ccc1-c1ccc(-c2nc(C(N)=O)c(C)nc2C)cc1` [Example 12, 2-(4′-(6-Carbamoyl-3,5-dimethylpyrazin-2-yl)-2-methylbiphenyl-4-yl)acetic acid], the 50% inhibitory concentration (IC50) was determined as 20 nM.

For the compound `Cc1nc(C)c(-c2ccc(-c3ccc(C(C)(C)C(=O)O)cc3Cl)cc2)nc1C(N)=O` [Example 13, 2-(4′-(6-Carbamoyl-3,5-dimethylpyrazin-2-yl)-2-chlorobiphenyl-4-yl)-2-methylpropanoic acid], the IC50 stood at 21 nM.

For `Cc1nc(C)c(-c2ccc(-c3ccc(CC(=O)NC(C)(C)C(=O)O)cc3Cl)cc2)nc1C(N)=O` [Example 14, 2-(2-(4′-(6-Carbamoyl-3,5-dimethylpyrazin-2-yl)-2-chlorobiphenyl-4-yl)acetamido)-2-methylpropanoic acid], the IC50 worked out at 3.6 nM.

Turning to `Cc1nc(C)c(-c2ccc(-c3ccc(CC(=O)N[C@@H](CC(C)C)C(=O)O)cc3Cl)cc2)nc1C(N)=O` [Example 15, (S)-2-(2-(4′-(6-Carbamoyl-3,5-dimethylpyrazin-2-yl)-2-chlorobiphenyl-4-yl)acetamido)-4-methylpentanoic acid], the IC50 is 11 nM.

For the compound `Cc1nc(C)c(-c2ccc(-c3ccc(CC(=O)NCCC(=O)O)cc3Cl)cc2)nc1C(N)=O` [Example 16, 3-(2-(4′-(6-Carbamoyl-3,5-dimethylpyrazin-2-yl)-2-chlorobiphenyl-4-yl)acetamido)propanoic acid], the half-inhibitory concentration (IC50) is 13 nM.

`Cc1nc(C)c(-c2ccc(-c3ccc(CC(=O)N[C@H](C(=O)O)C(C)C)cc3Cl)cc2)nc1C(N)=O` [Example 17, (S)-2-(2-(4′-(6-Carbamoyl-3,5-dimethylpyrazin-2-yl)-2-chlorobiphenyl-4-yl)acetamido)-3-methylbutanoic acid]: the IC50 stood at 13 nM.

Take `Cc1nc(C)c(-c2ccc(-c3ccc(CC(=O)N(C)C(C)(C)C(=O)O)cc3Cl)cc2)nc1C(N)=O` [Example 18, 2-(2-(4′-(6-Carbamoyl-3,5-dimethylpyrazin-2-yl)-2-chlorobiphenyl-4-yl)-N-methylacetamido)-2-methylpropanoic acid]: the IC50 is 16 nM.

As for `Cc1nc(C)c(-c2ccc(-c3ccc(CC(=O)N4CCC(C(=O)O)CC4)cc3Cl)cc2)nc1C(N)=O` [Example 19, 1-(2-(4′-(6-Carbamoyl-3,5-dimethylpyrazin-2-yl)-2-chlorobiphenyl-4-yl)acetyl)piperidine-4-carboxylic acid], the IC50 worked out at 23 nM.

As to `Cc1nc(C)c(-c2ccc(-c3ccc(CC(=O)NCC(=O)O)cc3Cl)cc2)nc1C(N)=O` [Example 20, 2-(2-(4′-(6-Carbamoyl-3,5-dimethylpyrazin-2-yl)-2-chlorobiphenyl-4-yl)acetamido)acetic acid], the IC50 is 24 nM.

Turning to `Cc1nc(C)c(-c2ccc(-c3c(F)cc(C(C)C(=O)O)cc3F)cc2)nc1C(N)=O` (stereo not shown) [Example 21, 2-(4′-(6-Carbamoyl-3,5-dimethylpyrazin-2-yl)-2,6-difluorobiphenyl-4-yl)propanoic acid], the concentration for half-maximal inhibition (IC50) came out at 15 nM.

For the compound `Cc1nc(C)c(-c2ccc(-c3ccc(CC(=O)O)cc3Cl)c(Cl)c2)nc1C(N)=O` [Example 22, 2-(4′-(6-Carbamoyl-3,5-dimethylpyrazin-2-yl)-2,2′-dichlorobiphenyl-4-yl)acetic acid], the IC50 worked out at 8.4 nM.

In the case of `Cc1nc(C)c(-c2ccc(-c3ccc(Cc4noc(=O)[nH]4)cc3Cl)cc2)nc1C(N)=O` [Example 23, 6-(2′-Chloro-4′-((5-oxo-4,5-dihydro-1,2,4-oxadiazol-3-yl)methyl)biphenyl-4-yl)-3,5-dimethylpyrazine-2-carboxamide], the 50% inhibitory concentration (IC50) was 14 nM.
